The target in data set [1] is T1, α-glucosidase (Saccharomyces cerevisiae, UniProt P53341).
T1 construct: purchased Sigma-Aldrich
Briefly: Kinetic study of α-glucosidase inhibition (Lineweaver–Burk plots). The format is biochemical. As to conditions: for Type of inhibition: Lineweaver–Burk plots: Vmax not affected, Km increased; for Ki: determined by Lineweaver–Burk plots. On the procedure:
The type of inhibition and value of Ki were determined by Lineweaver–Burk plots.
The 10 µL of enzyme solution (1 U/mL) was incubated with different concentrations of compound 43 (0.00 mM,0.012 mM, 0.02 mM, 0.04 mM), 40 (0.00 mM, 0.06 mM, 0.10 mM, 0.20 mM)and 34 (0.00 mM, 0.30 mM, 0.50 mM, 1.00 mM) for 20 min at 37 °C, then added different concentrations of substrate (1 mM, 0.9 mM, 0.75 mM, 0.6 mM, 0.45 mM, 0.3 mM, 0.25 mM), and change in absorbance was measured for 20 min at 405 nm by using spectrophotometer.

The target of data set [2] is α-glucosidase (EC 3.2.1.20) (Saccharomyces cerevisiae, UniProt P53341). Nature of the data set: biochemical. The data set is classed as biochemical.
Sequence of α-glucosidase (EC 3.2.1.20) (P53341 whole entry): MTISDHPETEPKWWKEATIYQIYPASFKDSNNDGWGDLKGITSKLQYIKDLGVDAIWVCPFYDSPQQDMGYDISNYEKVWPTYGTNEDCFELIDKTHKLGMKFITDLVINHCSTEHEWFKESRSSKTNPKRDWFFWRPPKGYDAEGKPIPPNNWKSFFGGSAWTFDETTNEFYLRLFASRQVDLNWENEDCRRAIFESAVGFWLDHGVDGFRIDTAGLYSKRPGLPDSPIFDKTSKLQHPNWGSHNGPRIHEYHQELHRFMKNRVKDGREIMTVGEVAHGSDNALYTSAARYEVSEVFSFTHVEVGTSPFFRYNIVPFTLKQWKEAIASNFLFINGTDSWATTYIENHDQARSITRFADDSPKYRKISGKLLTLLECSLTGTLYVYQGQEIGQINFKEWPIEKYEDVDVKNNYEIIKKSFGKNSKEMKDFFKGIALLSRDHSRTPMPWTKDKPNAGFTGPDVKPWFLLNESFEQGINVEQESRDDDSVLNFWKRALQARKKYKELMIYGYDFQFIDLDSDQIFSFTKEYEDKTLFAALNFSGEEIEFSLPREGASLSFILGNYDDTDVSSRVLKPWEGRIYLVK
The mark [3] stands for this setting: phosphate buffer pH 6.8, 37 °C, PNPG substrate, mean ± SD, at least three experiments, read-out: IC50 (α-glucosidase inhibitory activity).

Like-named read-outs stand apart in the source and are kept apart here.

T1 sequence (P53341 whole entry): as above

By Ki is commonly meant a dissociation constant, usually derived from enzyme kinetics or from competition with a known ligand. Read a high Ki as weaker binding. A word on the IC50: it is the midpoint of a concentration-inhibition curve. Turning to `O=C(C=Cc1ccccc1)c1ccccc1OCCCCCN1CC(O)C(O)C(O)C1CO` (stereo not drawn) [Compound 43], in data set [1], the Type of inhibition result is recorded as “competitive inhibitors” and affinity was put at a Ki of 10 µM. For the same compound, in data set [2], the IC50 stood at 30 ± 0.6 µM, the “fold more active than 1-DNJ” value is on record as around 7 fold and the “fold more active than acarbose” value is around 27 fold.

As to `CCOC(=O)C=Cc1ccc(OCCCN2CC(O)C(O)C(O)C2CO)c(OC)c1` (stereo not drawn) [Compound 36], in data set [2] (setting [3]), the IC50 is above 2000 µM.

By melting point is commonly meant the temperature of the solid-liquid transition. In turn, `CCOC(=O)/C=C/c1ccc(OCCN2CC(O)C(O)C(O)C2CO)c(OC)c1` (stereo not drawn) [Compound 35, Ethyl(E)-3-(3-methoxy-4-(2-(3,4,5-trihydroxy-2-(hydroxymethyl)piperidin-1-yl)ethoxy)phenyl)acrylate] returned a melting point of 146 to 148 °C. The compound also had an IC50 in data set [2] of 966.2 ± 0.4 µM.

`CCOC(=O)C=Cc1ccc(OCCCCCN2CC(O)C(O)C(O)C2CO)c(OC)c1` (stereo not drawn) [Compound 38]: the IC50 in data set [2] (setting [3]) was above 2000 µM.

`COC(=O)C=Cc1ccc(OCCCCCN2CC(O)C(O)C(O)C2CO)cc1` (stereo not drawn) [Compound 33]: the melting point was 85 to 86 °C. The compound further came in with a 50% inhibitory concentration (IC50) in data set [2] of 602.3 ± 1.2 µM.

In the case of `CCOC(=O)C=Cc1ccc(OCCCCCCN2CC(O)C(O)C(O)C2CO)c(OC)c1` (stereo not drawn) [Compound 39, Ethyl(E)-3-(3-methoxy-4-(6-(3,4,5-trihydroxy-2-(hydroxymethyl)piperidin-1-yl)ethoxy)phenyl)acrylate], in data set [2] (setting [3]), the IC50 is above 2000 µM.

With `COC(=O)C=Cc1ccc(OCCCN2CC(O)C(O)C(O)C2CO)cc1` (stereo not drawn) [Compound 31], the melting point was 104 to 107 °C. Moreover, in data set [2] (setting [3]), the half-inhibitory concentration (IC50) was above 2000 µM.

The compound `COC(=O)C=Cc1ccc(OCCCCN2CC(O)C(O)C(O)C2CO)cc1` (stereo not drawn) [Compound 32] came in with a melting point of 157 to 160 °C. In data set [2], this compound had an IC50 of 667 ± 1.6 µM.

`COC(=O)C=Cc1ccc(OCCCCCCN2CC(O)C(O)C(O)C2CO)cc1` (stereo not drawn) [Compound 34] showed a melting point of 110 to 113 °C. For the same compound, in data set [1], the Type of inhibition result is listed as “competitive inhibitors” and the inhibition constant (Ki) is 150 µM. This compound also yielded a half-maximal inhibitory concentration (IC50) in data set [2] of 417 ± 0.14 µM.

Compound `O=C(/C=C/c1ccccc1)OCCN1C[C@H](O)[C@@H](O)[C@H](O)[C@H]1CO` [Compound 25, 2-(3,4,5-Trihydroxy-2-(hydroxymethyl)piperidin-1-yl) ethyl cinnamate] displayed a 50% inhibitory concentration (IC50) in data set [2] of 1094 ± 1.8 µM.

`COC(=O)/C=C/c1ccc(OCCN2CC(O)C(O)C(O)C2CO)cc1` (stereo not drawn) [Compound 30, Methyl(E)-3-(4-(2-(3,4,5-trihydroxy-2-(hydroxymethyl)piperidin-1-yl)ethoxy)phenyl) acrylate]: the melting point fell in the range of 185 to 187 °C. In data set [2], this compound yielded an IC50 of 1272.2 ± 1.2 µM.

As to `O=C(/C=C/c1ccccc1)c1ccccc1OCCN1CC(O)C(O)C(O)C1CO` (stereo not drawn) [Compound 40, (E)-3-phenyl-1-(2-(2-(3,4,5-trihydroxy-2-(hydroxymethyl)piperidin-1-yl)ethoxy)phenyl)prop-2-en-1-one], in data set [1], the Type of inhibition entry was “competitive inhibitors” and the affinity, expressed as Ki, was 52 µM. In data set [2], half-maximal inhibition (IC50) required 160.5 ± 0.6 µM and the “fold more active than acarbose” value is on record as “around 5 fold”.

In data set [2], `O=C(/C=C/c1ccccc1)OCCCN1C[C@H](O)[C@@H](O)[C@H](O)[C@H]1CO` [Compound 26, 3-(3,4,5-Trihydroxy-2-(hydroxymethyl)piperidin-1-yl) ethyl cinnamate] had a concentration for half-maximal inhibition (IC50) of 1099 ± 1.1 µM.

In turn, `O=C(/C=C/c1ccccc1)OCCCCCCN1C[C@H](O)[C@@H](O)[C@H](O)[C@H]1CO` [Compound 29] showed an IC50 in data set [2] of 976.5 ± 0.7 µM.

`CCOC(=O)C=Cc1ccc(OCCCCN2CC(O)C(O)C(O)C2CO)c(OC)c1` (stereo not drawn) [Compound 37]: in data set [2] (setting [3]), the IC50 is above 2000 µM.

The record behind these values is PMC7580737, “Synthesis, in vitro inhibitory activity, kinetic study and molecular docking of novel N-alkyl–deoxynojirimycin derivatives as potential α-glucosidase inhibitors” (Journal of Enzyme Inhibition and Medicinal Chemistry, 2020).
